Experimental data from US9636418B2 (priority 2013, dated 2017).
Where “and” joins values, the source holds several entries; their conditions need not be identical. Identical values can stand only once. Like-named read-outs stand apart in the source and are kept apart here.

Tests used:
Assay in all cases: cell-based
hNav1.5 = hNav1.5 (Homo sapiens, UniProt Q14524); settings: for IC50: PatchXpress, * = at high concentrations compound would wash off slowly or not at all, read-out: PX hNav1.5 Tonic IC50
hNav1.4 = hNav1.4 (Homo sapiens, UniProt P35499); settings: for IC50: PatchXpress, read-out: PX hNav1.4 Tonic IC50
hNav1.7 = hNav1.7 (Homo sapiens, UniProt Q15858); assay type: cell-based; settings: PatchXpress, tonic block; read-out: PX hNav1.7 Tonic IC50
[1] = * = at high concentrations compound would wash off slowly or not at all

Chain of hNav1.4 (P35499 whole entry): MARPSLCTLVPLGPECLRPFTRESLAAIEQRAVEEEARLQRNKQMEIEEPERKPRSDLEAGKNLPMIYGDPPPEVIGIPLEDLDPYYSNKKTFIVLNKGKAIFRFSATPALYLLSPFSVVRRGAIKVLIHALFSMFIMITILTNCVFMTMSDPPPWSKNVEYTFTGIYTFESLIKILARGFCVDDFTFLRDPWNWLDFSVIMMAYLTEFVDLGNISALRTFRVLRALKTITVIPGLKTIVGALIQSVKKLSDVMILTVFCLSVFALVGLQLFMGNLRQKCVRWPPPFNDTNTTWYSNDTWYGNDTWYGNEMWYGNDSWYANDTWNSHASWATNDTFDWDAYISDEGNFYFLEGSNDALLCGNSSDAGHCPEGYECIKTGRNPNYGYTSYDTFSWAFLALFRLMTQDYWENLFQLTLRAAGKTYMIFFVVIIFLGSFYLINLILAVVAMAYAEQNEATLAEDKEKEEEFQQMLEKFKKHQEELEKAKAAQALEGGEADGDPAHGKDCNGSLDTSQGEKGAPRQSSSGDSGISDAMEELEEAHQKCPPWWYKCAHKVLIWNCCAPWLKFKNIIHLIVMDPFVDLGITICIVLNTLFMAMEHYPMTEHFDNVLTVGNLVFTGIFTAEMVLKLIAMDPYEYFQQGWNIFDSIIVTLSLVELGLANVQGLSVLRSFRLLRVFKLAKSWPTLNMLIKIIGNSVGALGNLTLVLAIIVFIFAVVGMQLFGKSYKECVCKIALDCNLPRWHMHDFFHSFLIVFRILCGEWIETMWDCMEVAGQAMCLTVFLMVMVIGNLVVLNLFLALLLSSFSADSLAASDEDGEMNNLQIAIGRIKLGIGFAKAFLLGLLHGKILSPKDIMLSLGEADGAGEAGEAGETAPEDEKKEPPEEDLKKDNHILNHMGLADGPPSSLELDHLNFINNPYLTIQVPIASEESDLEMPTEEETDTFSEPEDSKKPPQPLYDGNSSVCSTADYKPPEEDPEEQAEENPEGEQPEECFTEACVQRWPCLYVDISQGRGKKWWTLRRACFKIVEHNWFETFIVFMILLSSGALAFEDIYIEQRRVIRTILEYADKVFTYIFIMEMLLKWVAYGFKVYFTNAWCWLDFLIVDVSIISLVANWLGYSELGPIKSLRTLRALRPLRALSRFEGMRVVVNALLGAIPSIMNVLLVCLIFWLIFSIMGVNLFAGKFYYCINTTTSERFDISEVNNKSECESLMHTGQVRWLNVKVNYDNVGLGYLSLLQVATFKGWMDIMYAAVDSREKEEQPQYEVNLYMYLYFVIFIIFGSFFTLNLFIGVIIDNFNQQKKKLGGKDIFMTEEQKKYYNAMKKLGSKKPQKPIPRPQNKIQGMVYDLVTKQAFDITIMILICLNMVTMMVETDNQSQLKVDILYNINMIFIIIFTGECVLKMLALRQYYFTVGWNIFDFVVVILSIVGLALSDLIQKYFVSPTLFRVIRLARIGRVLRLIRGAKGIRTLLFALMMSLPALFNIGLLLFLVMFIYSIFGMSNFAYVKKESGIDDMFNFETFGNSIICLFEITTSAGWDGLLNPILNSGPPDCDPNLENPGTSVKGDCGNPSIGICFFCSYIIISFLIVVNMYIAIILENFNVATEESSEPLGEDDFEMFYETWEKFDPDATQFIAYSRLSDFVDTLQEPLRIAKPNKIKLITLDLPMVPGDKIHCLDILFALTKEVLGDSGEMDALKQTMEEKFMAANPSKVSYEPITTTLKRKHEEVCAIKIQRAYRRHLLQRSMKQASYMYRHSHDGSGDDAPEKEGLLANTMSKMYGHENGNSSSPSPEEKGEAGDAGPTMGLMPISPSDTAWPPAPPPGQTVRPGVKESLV
Chain of hNav1.5 (Q14524 whole entry): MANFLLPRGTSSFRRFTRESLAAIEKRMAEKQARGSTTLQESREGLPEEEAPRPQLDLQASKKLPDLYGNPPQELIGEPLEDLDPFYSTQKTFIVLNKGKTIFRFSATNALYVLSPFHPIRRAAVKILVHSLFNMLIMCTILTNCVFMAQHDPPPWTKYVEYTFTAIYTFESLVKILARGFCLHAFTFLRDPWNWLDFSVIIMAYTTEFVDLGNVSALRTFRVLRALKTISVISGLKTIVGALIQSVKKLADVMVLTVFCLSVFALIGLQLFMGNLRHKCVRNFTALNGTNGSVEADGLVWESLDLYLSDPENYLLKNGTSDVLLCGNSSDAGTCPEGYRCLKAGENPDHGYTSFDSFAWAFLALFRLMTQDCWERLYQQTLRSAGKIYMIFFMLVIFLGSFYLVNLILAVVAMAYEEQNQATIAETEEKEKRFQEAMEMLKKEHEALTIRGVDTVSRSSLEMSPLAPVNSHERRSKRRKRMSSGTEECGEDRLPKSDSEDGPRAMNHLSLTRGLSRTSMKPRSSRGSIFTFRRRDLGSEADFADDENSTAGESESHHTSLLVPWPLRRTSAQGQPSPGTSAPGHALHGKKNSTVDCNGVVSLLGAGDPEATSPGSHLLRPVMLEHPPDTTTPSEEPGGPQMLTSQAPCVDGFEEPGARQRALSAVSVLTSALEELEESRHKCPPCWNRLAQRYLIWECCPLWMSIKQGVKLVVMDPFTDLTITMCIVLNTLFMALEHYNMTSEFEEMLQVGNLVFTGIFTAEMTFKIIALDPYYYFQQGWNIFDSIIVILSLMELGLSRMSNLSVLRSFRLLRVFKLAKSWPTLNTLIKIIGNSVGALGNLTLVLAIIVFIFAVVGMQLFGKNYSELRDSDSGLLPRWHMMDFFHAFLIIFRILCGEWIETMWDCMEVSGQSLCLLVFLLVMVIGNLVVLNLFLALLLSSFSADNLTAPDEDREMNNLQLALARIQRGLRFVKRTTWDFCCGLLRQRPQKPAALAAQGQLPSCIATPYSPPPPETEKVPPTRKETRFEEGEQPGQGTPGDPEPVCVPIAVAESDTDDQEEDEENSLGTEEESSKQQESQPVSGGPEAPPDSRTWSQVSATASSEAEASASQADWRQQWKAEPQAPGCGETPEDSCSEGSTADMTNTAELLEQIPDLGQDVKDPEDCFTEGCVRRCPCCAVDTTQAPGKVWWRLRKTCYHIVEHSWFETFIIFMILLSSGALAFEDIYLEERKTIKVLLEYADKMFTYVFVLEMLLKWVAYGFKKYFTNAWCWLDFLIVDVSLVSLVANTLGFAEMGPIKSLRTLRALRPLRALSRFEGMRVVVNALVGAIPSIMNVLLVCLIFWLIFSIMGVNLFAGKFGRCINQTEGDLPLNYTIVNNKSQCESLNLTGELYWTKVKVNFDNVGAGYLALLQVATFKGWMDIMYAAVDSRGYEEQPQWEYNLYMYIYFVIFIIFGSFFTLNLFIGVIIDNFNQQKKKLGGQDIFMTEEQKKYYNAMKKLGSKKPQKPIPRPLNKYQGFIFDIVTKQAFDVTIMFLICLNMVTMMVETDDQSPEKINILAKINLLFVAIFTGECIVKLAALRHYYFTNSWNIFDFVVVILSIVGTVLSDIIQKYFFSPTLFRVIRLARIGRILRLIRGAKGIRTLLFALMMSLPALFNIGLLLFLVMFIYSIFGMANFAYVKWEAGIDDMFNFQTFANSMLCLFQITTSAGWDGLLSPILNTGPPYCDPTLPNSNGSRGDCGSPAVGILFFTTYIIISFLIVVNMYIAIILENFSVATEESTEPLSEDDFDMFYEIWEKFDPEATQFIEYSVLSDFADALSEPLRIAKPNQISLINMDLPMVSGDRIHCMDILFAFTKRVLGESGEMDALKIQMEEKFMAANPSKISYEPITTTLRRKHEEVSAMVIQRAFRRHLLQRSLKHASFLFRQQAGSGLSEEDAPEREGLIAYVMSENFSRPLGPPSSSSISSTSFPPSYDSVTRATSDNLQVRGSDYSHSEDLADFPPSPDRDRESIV

Row | SMILES | IC50 (hNav1.5) | Nav1.4/Nav1.7 (hNav1.4; ratio of PX IC50 values) | IC50 (hNav1.4; [1]) [nM] | also measured
1 | CCCC[C@@H]1NC(=O)[C@H](Cc2c[nH]c3ccccc23)NC(=O)[C@H](CCCCN)NC(=O)[C@H](CCC(N)=O)NC(=O)[C@@H](NC(=O)[C@H](Cc2ccc(O)cc2)NC(=O)[C@@H](N)Cc2cn(CCOCCOCCOCCOCCOCCOCCOCCOCCOCCOCCOCCOCCOCCOCCOCCOCCOCCOCCOCCOCCOCCOCCOCCNC(=O)c3cc(CNC(=O)CSCc4ccccc4)cc(C(=O)NCCOCCOCCOCCOCCOCCOCCOCCOCCOCCOCCOCCOCCOCCOCCOCCOCCOCCOCCOCCOCCOCCOCCOCCn4cc(C[C@H](N)C(=O)N[C@@H](Cc5ccc(O)cc5)C(=O)N[C@H]5CSSC[C@@H]6NC(=O)[C@@H]7CSSC[C@@H](C(=O)N[C@@H](CCCNC(=N)N)C(=O)N[C@@H](CCCCN)C(=O)N[C@H](C(=O)N[C@H](C(N)=O)[C@@H](C)CC)[C@@H](C)CC)NC(=O)[C@H](Cc8c[nH]c9ccccc89)NC(=O)[C@H](CC(C)C)NC(=O)[C@H](CCCCN)NC(=O)[C@H](CSSC[C@H](NC(=O)[C@H]([C@@H](C)O)NC(=O)[C@H](Cc8c[nH]c9ccccc89)NC(=O)[C@H](CCCC)NC(=O)[C@H](Cc8c[nH]c9ccccc89)NC(=O)[C@H](CCCCN)NC(=O)[C@H](CCC(N)=O)NC5=O)C(=O)N[C@@H](CC(=O)O)C(=O)N[C@@H](CO)C(=O)N[C@@H](CCCCN)C(=O)N[C@@H](CCCNC(=N)N)C(=O)N[C@@H](C)C(=O)N7)NC(=O)[C@H](CCCNC(=N)N)NC(=O)[C@H](CC(C)C)NC(=O)CNC(=O)[C@H](CCC(=O)O)NC6=O)nn4)c3)nn2)CSSC[C@@H]2NC(=O)[C@@H]3CSSC[C@@H](C(=O)N[C@@H](CCCNC(=N)N)C(=O)N[C@@H](CCCCN)C(=O)N[C@H](C(=O)N[C@H](C(N)=O)[C@@H](C)CC)[C@@H](C)CC)NC(=O)[C@H](Cc4c[nH]c5ccccc45)NC(=O)[C@H](CC(C)C)NC(=O)[C@H](CCCCN)NC(=O)[C@H](CSSC[C@H](NC(=O)[C@H]([C@@H](C)O)NC(=O)[C@H](Cc4c[nH]c5ccccc45)NC1=O)C(=O)N[C@@H](CC(=O)O)C(=O)N[C@@H](CO)C(=O)N[C@@H](CCCCN)C(=O)N[C@@H](CCCNC(=N)N)C(=O)N[C@@H](C)C(=O)N3)NC(=O)[C@H](CCCNC(=N)N)NC(=O)[C@H](CC(C)C)NC(=O)CNC(=O)[C@H](CCC(=O)O)NC2=O [Homodimeric Conjugate No. 2, Bis-{Atz(PEG23*)-[Nle6]JzTx-V(1-29)}-5-((2-(benzylthio)acetamido)methyl)isophthalamide] | 720 nM and 1180 nM | 5 and 3 | – | –
2 | CSCC[C@@H]1NC(=O)[C@H](Cc2c[nH]c3ccccc23)NC(=O)[C@H](CCCCN)NC(=O)[C@H](CCC(N)=O)NC(=O)[C@@H](NC(=O)[C@@H](N)Cc2ccc(O)cc2)CSSC[C@@H]2NC(=O)[C@@H]3CSSC[C@@H](C(=O)N[C@@H](CCCCN)C(=O)N[C@@H](Cc4ccc(O)cc4)C(=O)N[C@@H](CC(N)=O)C(=O)N[C@@H](CC(C)C)C(N)=O)NC(=O)[C@H](Cc4c[nH]c5ccccc45)NC(=O)[C@H](CC(C)C)NC(=O)[C@H](CCC(=O)O)NC(=O)[C@H](CSSC[C@H](NC(=O)[C@H]([C@@H](C)O)NC(=O)[C@H](Cc4c[nH]c5ccccc45)NC1=O)C(=O)N[C@@H](CC(=O)O)C(=O)N[C@@H](CO)C(=O)N[C@@H](CCC(=O)O)C(=O)N[C@@H](CCCNC(=N)N)C(=O)N[C@@H](CCCCN)C(=O)N3)NC(=O)[C@H](C(C)C)NC(=O)[C@H](Cc1ccc(O)cc1)NC(=O)CNC(=O)[C@H](CCC(=O)O)NC2=O [compound 48] | – | – | – | Nav1.5/Nav1.7 (hNav1.5): 61; Nav1.4/Nav1.7 (hNav1.4): 3
3 | CC[C@H](C)[C@H](NC(=O)[C@H](CCCCN)NC(=O)[C@H](CCCNC(=N)N)NC(=O)[C@@H]1CSSC[C@@H]2NC(=O)[C@H](C)NC(=O)[C@H](CCCNC(=N)N)NC(=O)[C@H](CCCCN)NC(=O)[C@H](CO)NC(=O)[C@H](CC(=O)O)NC(=O)[C@@H]3CSSC[C@H](NC(=O)[C@H](CCCNC(=N)N)NC(=O)[C@H](CC(C)C)NC(=O)CNC(=O)[C@H](CCC(=O)O)NC(=O)[C@H](CSSC[C@H](NC(=O)[C@@H](N)Cc4ccc(O)cc4)C(=O)N[C@@H](CCC(N)=O)C(=O)N[C@@H](CCCCN)C(=O)N[C@@H](Cc4c[nH]c5ccccc45)C(=O)N[C@@H](CCSC)C(=O)N[C@@H](Cc4c[nH]c5ccccc45)C(=O)N[C@@H]([C@@H](C)O)C(=O)N3)NC2=O)C(=O)N[C@@H](CCCCN)C(=O)N[C@@H](CC(C)C)C(=O)N[C@@H](Cc2c[nH]c3ccccc23)C(=O)N1)C(=O)N[C@@H](CCC(=O)O)C(N)=O [compound 70] | > 10000 nM | 43 | 11300 | Nav1.5/Nav1.7 (hNav1.5; ratio of PX IC50 values): >38
4 | CCCC[C@@H]1NC(=O)[C@H](Cc2c[nH]c3ccccc23)NC(=O)[C@H](CCCCN)NC(=O)[C@H](CCC(N)=O)NC(=O)[C@@H](NC(=O)[C@H](Cc2ccc(O)cc2)NC(=O)[C@@H](N)CC(C)C)CSSC[C@@H]2NC(=O)[C@@H]3CSSC[C@@H](C(=O)N[C@@H](CCCNC(=N)N)C(=O)N[C@@H](CCCCN)C(=O)N[C@H](C(=O)N[C@H](C(N)=O)[C@@H](C)CC)[C@@H](C)CC)NC(=O)[C@H](Cc4c[nH]c5ccccc45)NC(=O)[C@H](CC(C)C)NC(=O)[C@H](CCCCN)NC(=O)[C@H](CSSC[C@H](NC(=O)[C@H]([C@@H](C)O)NC(=O)[C@H](Cc4c[nH]c5ccccc45)NC1=O)C(=O)N[C@@H](CC(=O)O)C(=O)N[C@@H](CO)C(=O)N[C@@H](CCCCN)C(=O)N[C@@H](CCCNC(=N)N)C(=O)N[C@@H](C)C(=O)N3)NC(=O)[C@H](CCCNC(=N)N)NC(=O)[C@H](CC(C)C)NC(=O)CNC(=O)[C@H](CCC(=O)O)NC2=O [compound 361] | – | 0 | – | Nav1.5/Nav1.7 (hNav1.5; ratio of PX IC50 values): 0
5 | CCCC[C@@H]1NC(=O)[C@H](Cc2c[nH]c3ccccc23)NC(=O)[C@H](CCCCN)NC(=O)[C@H](CCC(N)=O)NC(=O)[C@@H](NC(=O)[C@H](Cc2ccc(O)cc2)NC(=O)[C@@H](N)CCC)CSSC[C@@H]2NC(=O)[C@@H]3CSSC[C@@H](C(=O)N[C@@H](CCCNC(=N)N)C(=O)N[C@@H](CCCCN)C(=O)N[C@H](C(=O)N[C@H](C(N)=O)[C@@H](C)CC)[C@@H](C)CC)NC(=O)[C@H](Cc4c[nH]c5ccccc45)NC(=O)[C@H](CC(C)C)NC(=O)[C@H](CCCCN)NC(=O)[C@H](CSSC[C@H](NC(=O)[C@H]([C@@H](C)O)NC(=O)[C@H](Cc4c[nH]c5ccccc45)NC1=O)C(=O)N[C@@H](CC(=O)O)C(=O)N[C@@H](CO)C(=O)N[C@@H](CCCCN)C(=O)N[C@@H](CCCNC(=N)N)C(=O)N[C@@H](C)C(=O)N3)NC(=O)[C@H](CCCNC(=N)N)NC(=O)[C@H](CC(C)C)NC(=O)CNC(=O)[C@H](CCC(=O)O)NC2=O [compound 369] | 490 nM | – | 11.6 | –
6 | CCCC[C@@H]1NC(=O)[C@H](Cc2c[nH]c3ccccc23)NC(=O)[C@H](CCCCN)NC(=O)[C@H](CCC(N)=O)NC(=O)[C@@H](NC(=O)[C@H](Cc2ccc(O)cc2)NC(=O)[C@H](N)CC(C)C)CSSC[C@@H]2NC(=O)[C@@H]3CSSC[C@@H](C(=O)N[C@@H](CCCNC(=N)N)C(=O)N[C@@H](CCCCN)C(=O)N[C@H](C(=O)N[C@H](C(N)=O)[C@@H](C)CC)[C@@H](C)CC)NC(=O)[C@H](Cc4c[nH]c5ccccc45)NC(=O)[C@H](CC(C)C)NC(=O)[C@H](CCCCN)NC(=O)[C@H](CSSC[C@H](NC(=O)[C@H]([C@@H](C)O)NC(=O)[C@H](Cc4c[nH]c5ccccc45)NC1=O)C(=O)N[C@@H](CC(=O)O)C(=O)N[C@@H](CO)C(=O)N[C@@H](CCCCN)C(=O)N[C@@H](CCCNC(=N)N)C(=O)N[C@@H](C)C(=O)N3)NC(=O)[C@H](CCCNC(=N)N)NC(=O)[C@H](CC(C)C)NC(=O)CNC(=O)[C@H](CCC(=O)O)NC2=O [compound 373] | 410 nM | 190 | 28.7 | –
7 | C#CC[C@H](N)C(=O)NCCOCCOCCOCCOCCC(=O)NCCCC[C@@H]1NC(=O)[C@H](CCCNC(=N)N)NC(=O)[C@H](CCCCN)NC(=O)[C@H](CO)NC(=O)[C@H](CC(=O)O)NC(=O)[C@@H]2CSSC[C@@H]3NC(=O)[C@H](CCCNC(=N)N)NC(=O)[C@H](CC(C)C)NC(=O)CNC(=O)[C@H](CCC(=O)O)NC(=O)[C@H](CSSC[C@H](NC(=O)[C@H](Cc4ccc(O)cc4)NC(=O)[C@@H](N)CC#N)C(=O)N[C@@H](CCC(N)=O)C(=O)N[C@@H](CCCCN)C(=O)N[C@@H](Cc4c[nH]c5ccccc45)C(=O)N[C@@H](CCCC)C(=O)N[C@@H](Cc4c[nH]c5ccccc45)C(=O)N[C@@H]([C@@H](C)O)C(=O)N2)NC(=O)[C@H](CSSC[C@@H](C(=O)N[C@@H](CCCNC(=N)N)C(=O)N[C@@H](CCCCN)C(=O)N[C@H](C(=O)N[C@H](C(N)=O)[C@@H](C)CC)[C@@H](C)CC)NC(=O)[C@H](Cc2c[nH]c4ccccc24)NC(=O)[C@H](CC(C)C)NC(=O)[C@H](CCCCN)NC3=O)NC1=O [compound 380] | – | – | – | Nav1.5/Nav1.7 (hNav1.5; ratio of PX tonic IC50 values): 0; Nav1.4/Nav1.7 (hNav1.4; ratio of PX tonic IC50 values): 0
8 | C#CC[C@H](N)C(=O)NCCCC[C@@H]1NC(=O)[C@H](CCCNC(=N)N)NC(=O)[C@H](CCCCN)NC(=O)[C@H](CO)NC(=O)[C@H](CC(=O)O)NC(=O)[C@@H]2CSSC[C@@H]3NC(=O)[C@H](CCCNC(=N)N)NC(=O)[C@H](CC(C)C)NC(=O)CNC(=O)[C@H](CCC(=O)O)NC(=O)[C@H](CSSC[C@H](NC(=O)[C@H](Cc4ccc(O)cc4)NC(=O)[C@@H](N)CCC)C(=O)N[C@@H](CCC(N)=O)C(=O)N[C@@H](CCCCN)C(=O)N[C@@H](Cc4c[nH]c5ccccc45)C(=O)N[C@@H](CC(C)C)C(=O)N[C@@H](Cc4c[nH]c5ccccc45)C(=O)N[C@@H]([C@@H](C)O)C(=O)N2)NC(=O)[C@H](CSSC[C@@H](C(=O)N[C@@H](CCCNC(=N)N)C(=O)N[C@@H](CCCCN)C(=O)N[C@H](C(=O)N[C@H](C(N)=O)[C@@H](C)CC)[C@@H](C)CC)NC(=O)[C@H](Cc2c[nH]c4ccccc24)NC(=O)[C@H](CC(C)C)NC(=O)[C@H](CCCCN)NC3=O)NC1=O [compound 438] | – | – | – | IC50 (hNav1.7): 2.38 nM and 1.57 nM; IC50 (hNav1.4; tonic block): 16.1 nM; Nav1.4/Nav1.7 (hNav1.4; ratio of PX tonic IC50 values): 7
